{
  "source": "patent US20240150293A1",
  "about": "“SPIROCYCLOHEXANE DERIVATIVES, PHARMACEUTICAL COMPOSITIONS CONTAINING THEM AND THEIR USES AS ANTI-APOPTOTIC INHIBITORS” (LES LABORATOIRES SERVIER, priority 2021, published 2024)",
  "key": {"NCI-H929 cell lines": {"system": "NCI-H929 cell lines", "assay": "In vitro cytotoxicity, CellTiter-Glo (CTG) assay (Example B, Method B)", "format": "cell-based", "settings": "Homo sapiens, NCI-H929, 48 h, NCI-H929 cells, 48 h incubation, read-out: C50", "procedure,_shortened": "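ATP-based luminescence (CellTiter-Glo) after 48 h incubation at 37° C., 5% CO2 gave NCI-H929 viability. Eleven concentrations tested, highest final 30 μM, dispensed acoustically from 10 mM DMSO stocks; C50 defined as concentration reaching 50% viability.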"}, "[1]": {"molecular_target": "Cy5-labelled Mcl1 (amino acids 171-321) C286S protein (UniProtKB Q07820) (Homo sapiens (Human), UniProt Q07820, C286S)", "sequence (Q07820 171-321 C286S)": "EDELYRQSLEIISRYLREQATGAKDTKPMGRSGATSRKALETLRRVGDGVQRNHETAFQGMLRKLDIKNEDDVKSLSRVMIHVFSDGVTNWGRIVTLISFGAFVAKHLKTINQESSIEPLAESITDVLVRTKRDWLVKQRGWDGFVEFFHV", "assay": "Inhibition of Mcl-1 by the fluorescence quenching assay (Example A, Method B)", "format": "binding", "procedure,_shortened": "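Eleven-point compound series incubated 2 h at room temperature with 1 nM Cy5-tagged protein and quencher-labelled PUMA peptide at 10, 20 or 400 nM in HEPES/NaCl/Tween 20, pH 7.4, 5% DMSO. IC50 for 50% fluorescence increase by 4-parameter fit, then Ki derived (complete cKi or estimated eKi).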"}},
  "note": "Like-named read-outs stand apart in the source and are kept apart here.",
  "data": [
    {"smiles": "CC(C)Oc1cc2c(cc1Cl)C[C@H](C[C@@H](C)COc1ccnc3c1[C@H](C)CCC3)[C@]21CC[C@](Nc2cccc(Cl)c2)(C(=O)O)CC1", "note": "[Example 819, (1r,2′S,4S)-5′-chloro-4-(3-chloroanilino)-2′-[(2R)-2-methyl-3-{[(5R)-5-methyl-5,6,7,8-tetrahydroquinolin-4-yl]oxy}propyl]-6′-[(propan-2-yl)oxy]-2′,3′-dihydrospiro[cyclohexane-1,1′-indene]-4-carboxylic acid]", "values": [
      {"measurement": "IC50", "setting": "NCI-H929 cell lines", "result": 151, "unit": "nM"},
      {"measurement": "Ki", "setting": "[1]", "result": 0.162, "unit": "nM"}
    ]},
    {"smiles": "Cc1ccc2c(c1)C[C@H](C[C@@H](C)COc1ccnc3c1[C@H](C)CCC3)[C@]21CC[C@](Nc2cccc(Cl)c2)(C(=O)O)CC1", "note": "[Example 853, (1r,2′S,4S)-4-(3-chloroanilino)-5′-methyl-2′-[(2R)-2-methyl-3-{[(5R)-5-methyl-5,6,7,8-tetrahydroquinolin-4-yl]oxy}propyl]-2′,3′-dihydrospiro[cyclohexane-1,1′-indene]-4-carboxylic acid]", "values": [
      {"measurement": "IC50", "setting": "NCI-H929 cell lines", "result": 137, "unit": "nM"},
      {"measurement": "Ki", "setting": "[1]", "result": 0.0917, "unit": "nM"}
    ]},
    {"smiles": "CC(C)C1COc2cc3c(cc2OC1)[C@]1(CC[C@@](Nc2cccc(Cl)c2)(C(=O)O)CC1)[C@@H](C[C@@H](C)COc1ccnc2c1[C@H](C)CCC2)C3", "note": "(single isomer, unassigned) [Example 992]", "values": [
      {"measurement": "IC50", "setting": "NCI-H929 cell lines", "result": 184, "unit": "nM"},
      {"measurement": "Ki", "setting": "[1]", "result": 0.0795, "unit": "nM"}
    ]},
    {"smiles": "CC(OC(=O)N1CCOCC1)OC(=O)[C@]1(Nc2cccc(Cl)c2)CC[C@@]2(CC1)c1cc3c(cc1C[C@@H]2C[C@@H](C)COc1ccnc2c1[C@H](C)CCC2)OCO3", "note": "(stereo partly drawn) [Example 948, 1-({(1r,4S,6′S)-4-(3-chloroanilino)-6′-[(2R)-2-methyl-3-{[(5R)-5-methyl-5,6,7,8-tetrahydroquinolin-4-yl]oxy}propyl]-6′,7′-dihydro-2′H-spiro[cyclohexane-1,5′-indeno[5,6-d][1,3]dioxole]-4-carbonyl}oxy)ethyl morpholine-4-carboxylate]", "values": [
      {"measurement": "IC50", "setting": "NCI-H929 cell lines", "result": 7120, "unit": "nM"},
      {"measurement": "Ki", "setting": "[1]", "result": 64.9, "unit": "nM"}
    ]},
    {"smiles": "C[C@@H](COc1ccnc2c1[C@H](C)CC[C@H]2O)C[C@H]1Cc2cc3c(cc2[C@]12CC[C@@](Nc1cccc(Cl)c1)(C(=O)O)CC2)OCCO3", "note": "[Example 962, (1r,4S,7′S)-4-(3-chloroanilino)-7′-[(2R)-3-{[(5R,8R)-8-hydroxy-5-methyl-5,6,7,8-tetrahydroquinolin-4-yl]oxy}-2-methylpropyl]-2′,3′,7′,8′-tetrahydrospiro[cyclohexane-1,6′-indeno[5,6-b][1,4]dioxine]-4-carboxylic acid]", "values": [
      {"measurement": "IC50", "setting": "NCI-H929 cell lines", "result": 42.8, "unit": "nM"},
      {"measurement": "Ki", "setting": "[1]", "result": 0.0109, "unit": "nM"}
    ]},
    {"smiles": "COCCCOc1cc2c(cc1Cl)C[C@H](C[C@@H](C)COc1ccnc3c1[C@H](C)CCC3)[C@]21CC[C@](Nc2cccc(Cl)c2)(C(=O)O)CC1", "note": "[Example 823, (1r,2′S,4S)-5′-chloro-4-(3-chloroanilino)-6′-(3-methoxypropoxy)-2′-[(2R)-2-methyl-3-{[(5R)-5-methyl-5,6,7,8-tetrahydroquinolin-4-yl]oxy}propyl]-2′,3′-dihydrospiro[cyclohexane-1,1′-indene]-4-carboxylic acid]", "values": [
      {"measurement": "IC50", "setting": "NCI-H929 cell lines", "result": 128, "unit": "nM"},
      {"measurement": "Ki", "setting": "[1]", "result": 0.108, "unit": "nM"}
    ]},
    {"smiles": "Cc1c(Cl)cccc1N[C@]1(C(=O)O)CC[C@]2(CC1)c1cc3c(cc1CN2C[C@@H](C)COc1ccnc2c1[C@H](C)CCC2)OCO3", "note": "[Example 49, (1s,4S)-4-(3-chloro-2-methylanilino)-6′-[(2R)-2-methyl-3-{[(5R)-5-methyl-5,6,7,8-tetrahydroquinolin-4-yl]oxy}propyl]-6′,7′-dihydro-2′H-spiro[cyclohexane-1,5′-[1,3]dioxolo[4,5-f]isoindole]-4-carboxylic acid]", "values": [
      {"measurement": "IC50", "setting": "NCI-H929 cell lines", "result": 242, "unit": "nM"},
      {"measurement": "Ki", "setting": "[1]; Ki determined from IC50", "result": 0.31, "unit": "nM"}
    ]},
    {"smiles": "COC(=O)OC(C)OC(=O)[C@]1(Nc2cccc(Cl)c2)CC[C@@]2(CC1)c1cc3c(cc1C[C@@H]2C[C@@H](C)COc1ccnc2c1[C@H](C)CCC2)OCO3", "note": "(stereo partly drawn) [Example 943, 1-[(methoxycarbonyl)oxy]ethyl (1r,4S,6′S)-4-(3-chloroanilino)-6′-[(2R)-2-methyl-3-{[(5R)-5-methyl-5,6,7,8-tetrahydroquinolin-4-yl]oxy}propyl]-6′,7′-dihydro-2′H-spiro[cyclohexane-1,5′-indeno[5,6-d][1,3]dioxole]-4-carboxylate]", "values": [
      {"measurement": "IC50", "setting": "NCI-H929 cell lines", "result": 228, "unit": "nM"},
      {"measurement": "Ki", "setting": "[1]", "result": 1, "unit": "nM"}
    ]}
  ]
}
